Measurements published in patent publication US10583171B2, “NMDAR antagonists for the treatment of diseases associated with angiogenesis” (INSERM (Institut National de la Sante et de la Recherche …, priority 2015, dated 2020).

What was measured:
Format in all cases: cell-based, human
[1] = tested on: hPMVEC; experiment: In vitro angiogenesis Matrigel assay with hPMVEC; settings: 4 hours, 100 μM (+)-MK-801 maleate or 50 μM DAP-V (FIG. 1g, FIG. 2f)
Method: Matrigel assays were performed on μ-slide angiogenesis (IBIDI, Martinsried, Germany). 100 μL of phenol-red free matrigel matrix (BD, Franklin lakes, N.J., USA) were put in each wells and slides were incubated during 30 min at 37° C. Then, 50 μL of EGM2-MV medium with our without NMDAR antagonists (100 μM (+)-MK-801 maleate or 50 μM DAP-V, both from ABCAM BIOCHEMICALS, Cambridge, UK) were added on matrigel gels during 1 hour. 3500 hPMVEC were seeded in each well in presence or absence of NMDAR antagonists. After 4 hours, bright-field images of capillary-like structures were captured using Eclipse 80i microscope coupled to Nis Elements BR2.30 software. Images were then automatically analyzed with “Angiogenesis analyzer” plugin for ImageJ software resulting in total tube length and total number of nodes determination.

[2] = tested on: hPMVEC; experiment: hPMVEC proliferation (BrdU incorporation) stimulated by VEGF-A or FBS; settings: for hPMVEC proliferation stimulated by FBS 10%: antagonist 10 μM to 100 μM, no exogenous NMDAR agonists (FIG. 2e); for hPMVEC proliferation stimulated by VEGF-A: VEGF-A 10 ng·ml^−1, antagonist 10 μM to 100 μM, no exogenous NMDAR agonists (FIG. 1f)
Method: FIG. 1: Activation of endothelial cell NMDAR contributes to vascular remodeling in the development of pulmonary hypertension. • (a) The table summarizes quantitation of total membrane GluN1 i.e NMDAR available for activation, in endothelial cells and also specifically in synaptic-like contact (defined as a close contact […] between two endothelial cells without junctions). A concentration index of GluN1 in the synaptic-like contacts was determined calculating the ratio of the percent of membrane GluN1 in these synaptic-like contacts divided by the percent of synaptic contact length. • (b) Quantitative RT-PCR analysis of GRIN1 gene expression from total RNA of CD31+ cells and CD31− cells isolated from the lungs of wild-type mice (n=4) and knocked-out mice (n=4) for the NMDAR in ECs showing efficiency of Grin1 knockout in ECs. Grin1 gene expression is normalized to Actinb gene expression. Values are normalized to those of WT mice. • (c) Right Ventricular Systolic Pressure (RVSP) measurement in wild-type (n=11-12) and knocked-out mice for the NMDAR in ECs (n=17-18) after 3 weeks of normoxia or chronic hypoxia (FiO2: 10%). • (d) Ratio of right ventricular weight to left ventricular plus septum weight (Fulton index) measured in wild-type (n=12) or knocked-out mice for the NMDAR in ECs (n=19-20) after 3 weeks of normoxia or chronic hypoxia (FiO2: 10%). Same experiment as in c). • (e) Morphometric analysis of pulmonary vessels in wild-type or knocked-out mice for the NMDAR in ECs after 3 weeks of normoxia or chronic hypoxia (FiO2: 10%). Same experiment as in c) and d). […] 100 vessels were analyzed for each group (20 vessels per group and per mice). […] On the left automatic quantification of total tube length and total number of nodes using the “Angiogenesis analyzer” plugin from ImageJ software on a total of 7-8 images (1 image/replicate, each image covering nearly all the well area). Values are expressed as percent of control. […] Statistical significance was determined by Mann Whitney test (b), regular two-way ANOVA followed by Bonferonni's test (c-e), one-way ANOVA followed by Bonferonni's multiple comparison test (f, h) or Student's t test (g). *p<0.05, ***p<0.001 compared to WT/control (b-e, g, h) or ^§§§ p<0.001 compared to control, *p<0.05, ***p<0.001 compared to VEGF (f). […]
FIG. 2: Supplementary figures about activation of endothelial cell NMDAR contributes to vascular remodeling in the development of pulmonary hypertension. • (a) Quantitation of total GluN1-associated immunogold particles per 100 μm^2 of endothelial cells in arteries from a control patient, and in an intimal lesion and plexiform lesion from a PAH patient. • (b) Genotyping of Tek-creXGrin1 mice. […]

[3] = tested on: hPMVEC; experiment: hPASMC/hPMVEC co-culture model of angiogenesis; settings: hPMVECs and hPASMCs co-culture, 15 days, CD31 staining; 10 to 100 μM (FIG. 1h, FIG. 2g)
Method: For the hPASMC/hPMVEC co-culture model of angiogenesis, 20000 PASMC were seeded on glass coverslips in a 12-well plate (CORNING, Tewksbury, Mass., USA) and cultured until confluence in SmGm2 complete medium. […] Medium was changed every 2 to 3 days and after 15 days of co-culture, cells were fixed and CD31 was stained. After staining, 5×5 images of each coverslip were captured using mosaic mode of acquisition with a Zeiss Axio Observer Z1 microscope coupled to Axiovision 4.8 software (both from CARL ZEISS, Oberkochen, Germany). Images were analysed using ImageJ software in order to calculate the CD31 staining area to the total cell area ratio. This ratio was further named as the total tube length. Automatic quantitation was also achieved using AngioQuant software^70 to determine total tube length.

[4] = tested on: hPASMCs; experiment: hPASMC proliferation induced by PDGF-BB; settings: PDGF-BB stimulation, no NMDAR agonist added to the medium
Method: For hPASMC culture, 250 000 cells were seeded in T75 flasks (BD Falcon, CORNING, Tewksbury, Mass., USA) and grown in the SmGm2 complete medium containing SmBm basal medium and also basic fibroblast growth factor, epidermal growth factor, insulin and gentamycin/amphotericin 1× (all from LONZA, Basel, Switzerland).
As proliferation of hPASMCs is a crucial determinant of vascular remodeling associated to increased pulmonary vascular resistance and pressure, we analyzed the role of NMDAR activation in hPASMCs proliferation. […] Thus, we explored the potential of PDGF-BB to phosphorylate GluN1 in hPASMCs on Ser896, a site phosphorylated in pulmonary arteries of PAH patients.

SMILES | number of nodes [1] | total tube length formation [1] | hPMVEC proliferation stimulated by FBS 10% [2] | hPMVEC proliferation stimulated by VEGF-A [2] | formation of the endothelial tube network [3] | hPASMCs proliferation induced by PDGF-BB [4]
N[C@H](CCCP(=O)(O)O)C(=O)O [DAP-5, 2-amino-5-phosphonopentanoïc acid] | decrease | decrease |  |  |  | 
C[C@@]12N[C@@H](Cc3ccccc31)c1ccccc12 [MK-801, [5R,10S]-[+]-5-methyl-10,11-dihydro-5H-dibenzo[a,d]cyclohepten-5,10-imine] | decrease | decrease | dose-dependently inhibit | dose-dependently inhibit | dose-dependently inhibits | 
CC12CC3CC(C)(C1)CC(N)(C3)C2 [memantine, 3,5-dimethyladamantan-1-amine] |  |  | dose-dependently inhibit | dose-dependently inhibit |  | dose-dependent inhibition
